From patent US9456606B2, “Pesticidal mixtures” (Syngenta Participations AG, priority 2011, dated 2016)

Tested on: Tetranvchus urticae (Two-Spotted Spider Mite)
Test: Tetranychus urticae bean leaf disc spray test, mobile stages mortality after 8 days, with COLBY expected action
Type: in vivo
Details: for SPAT observed control %: SPAT alone; for DMET observed control %: DMET alone; for C8 observed control %: C8 alone
Source text: The action to be expected E for a given active ingredient combination obeys the so-called COLBY formula and can be calculated as follows (COLBY, S. R. “Calculating synergistic and antagonistic responses of herbicide combination”. Weeds, Vol. 15, pages 20-22; 1967):
According to COLBY, the expected (additive) action of active ingredients A)+B) using p+q ppm of active ingredient is
If the action actually observed (O) is greater than the expected action (E), then the action of the combination is super-additive, i.e. there is a synergistic effect. In mathematical terms the synergism factor SF corresponds to O/E. In the agricultural practice an SF of ≧1.2 indicates significant improvement over the purely complementary addition of activities (expected activity), while an SF of ≦0.9 in the practical application routine signals a loss of activity compared to the expected activity.
Tetranvchus urticae (Two-Spotted Spider Mite)
Bean leaf discs on agar in 24-well microtiter plates are sprayed with test solutions (DMSO). After drying, the leaf discs are infested with mite populations of mixed ages. 8 days later, discs are checked for mobile stages (I removed “mixed population”) mortality.
Columns 4 and 5 show the control observed from the compounds alone. […] When a compound applied alone gave no control at a particular rate, it is assumed that lower rates of that compound alone also give no control. DMET=deltamethrin, SPAT=spirotetramat, C8=compound 8 in Table C.

With `CCOC(=O)OC1=C(c2cc(C)ccc2C)C(=O)N[C@]12CC[C@@H](OC)CC2` [SPAT, spirotetramat] the “SPAT observed control %” value (1.56 ppm) was 0%, the “SPAT observed control %” value (3.125 ppm) was 0% and the “SPAT observed control %” value (3.25 ppm) was 0%. The “SPAT observed control %” value (6.25 ppm) was 25%, the “SPAT observed control %” value (12.5 ppm) was 65% and the “SPAT observed control %” value (25 ppm) was 80%. For the same molecule, the “SPAT observed control %” value (50 ppm) was 85%, the “SPAT observed control %” value (100 ppm) was 85% and the “SPAT observed control %” value (.25 ppm) was 80%.

In the case of `CC1(C)[C@H](C(=O)O[C@H](C#N)c2cccc(Oc3ccccc3)c2)[C@@H]1C=C(Br)Br` [DMET, deltamethrin], the “DMET observed control %” value (0.39 ppm) was 0%, the “DMET observed control %” value (0.781 ppm) was 0% and the “DMET observed control %” value (1.562 ppm) was 0%. For the same molecule, the “DMET observed control %” value (3.125 ppm) was 0%, the “DMET observed control %” value (6.25 ppm) was 75% and the “DMET observed control %” value (12.5 ppm) was 80%. For the same molecule, the “DMET observed control %” value (25 ppm) was 90% and the “DMET observed control %” value (50 ppm) was 90%.

`CCC(=O)NC1CCc2cc(C3=NOC(c4cc(Cl)cc(Cl)c4)(C(F)(F)F)C3)ccc21` (racemic) [C8] was tested, and the “C8 observed control %” value (0.094 ppm, Table 1) was 0%, the “C8 observed control %” value (0.187 ppm, Table 1) was 0% and the “C8 observed control %” value (0.375 ppm, Table 1) was 0%. For the same molecule, the “C8 observed control %” value (0.375 ppm, Table 2) was 0%, the “C8 observed control %” value (0.75 ppm, Table 1) was 25% and the “C8 observed control %” value (0.75 ppm, Table 2) was 55%. For the same molecule, the “C8 observed control %” value (1.5 ppm, Table 1) was 65%, the “C8 observed control %” value (1.5 ppm, Table 2) was 80% and the “C8 observed control %” value (3.0 ppm, Table 2) was 95%. The “C8 observed control %” value (6.0 ppm, Table 2) was 95%.
